{"source": "patent US20230030886A1", "about": "“CHEMOTHERAPEUTIC DRUG IMPLANT” (EXTRUDED PHARMACEUTICALS LTD, priority 2019, published 2023)", "test_system": "primary GBM cells taken from eight patients with recurrent GBM", "experiment": "GBM cell cytotoxicity of IRN, TMZ and IRN+PVT, increasing concentrations, 5 days (MTT)", "format": "cell-based, human", "protocol": "TMZ, IRN and IRN+PVT were added at increasing concentrations up to 5 log nm to cultured primary GBM cells taken from eight patients with recurrent GBM. After 5 days of exposure an MTT assay was performed to assess % cell viability."}
{"smiles": "CCc1c2c(nc3ccc(OC(=O)N4CCC(N5CCCCC5)CC4)cc13)-c1cc3c(c(=O)n1C2)COC(=O)[C@]3(O)CC", "note": "[IRN, irinotecan]", "values": [{"measurement": "IC50", "setting": "Homo sapiens, 120 h, determined from FIG. 23, 5 days exposure, eight patient lines", "result": 3.16, "unit": "µM"}, {"measurement": "response of the eight patient cell lines to treatment", "setting": "up to 5 log nm, 5 days of exposure", "result": "Six of the eight patient cell lines responded"}]}
